Read-outs that look alike come from different tables or passages of the source.
Experiments:
Assay in all cases: NCI-60 antiproliferative screen (SRB)
TK-10 = format: cell-based, human; settings: 48 h
OVCAR-8 = format: cell-based, human; settings: 48 h
ACHN = format: cell-based, human; settings: 48 h
A498 = format: cell-based, human; settings: 48 h
T-47D = format: cell-based, human; settings: 48 h
OVCAR-5 = format: cell-based, human; settings: 48 h
NCI-H23 = format: cell-based, human; settings: 48 h
SF-539 = format: cell-based, human; settings: 48 h
CCRF-CEM = format: cell-based, human; settings: 48 h
CAKI-1 = format: cell-based, human; settings: 48 h
A549/ATCC = format: cell-based, human; settings: 48 h
HCT-15 = format: cell-based, human; settings: 48 h
MDA-MB-231 = format: cell-based, human; settings: 48 h
SK-OV-3 = format: cell-based, human; settings: 48 h
SNB-75 = settings: Homo sapiens, SNB-75, 48 h, read-out: Growth inhibition (%)
HOP-92 = format: cell-based, human; settings: 48 h
COLO 205 = format: cell-based, human; settings: 48 h
HOP-62 = format: cell-based, human; settings: 48 h
SW-620 = format: cell-based, human; settings: 48 h
SK-MEL-28 = format: cell-based, human
SF-268 = format: cell-based, human; settings: 48 h
KM12 = format: cell-based, human; settings: 48 h
HCC-2998 = format: cell-based, human; settings: 48 h
MCF7 = format: cell-based, human; settings: 48 h
SK-MEL-5 = format: cell-based, human
RPMI-8226 = format: cell-based, human; settings: 48 h
MOLT-4 = format: cell-based; settings: Homo sapiens, 48 h
SN12C = format: cell-based, human; settings: 48 h
SK-MEL-2 = format: cell-based, human; settings: 48 h

O=C1Nc2cc(Cl)ccc2C1=Cc1ccc(OCc2cccnc2)cc1 (mixture of isomers) [Compound 5l, (E/Z)-6-Chloro-3-[4-(pyridin-3-ylmethoxy)benzylidene] indolin-2-one]
inhibition at 10 µM (TK-10; Homo sapiens, 10 µM single dose, TK-10 (Renal), read-out: Growth inhibition (%)): 29.4%
GI50 (TK-10; Homo sapiens, five-dose, TK-10): 77.1 µM
CC50 (TK-10; Homo sapiens, five-dose, TK-10, read-out: LC50 (the source's name)): > 100 µM
TGI (TK-10; five-dose, TK-10): >100 µM
inhibition at 10 µM (OVCAR-8; Homo sapiens, 10 µM single dose, OVCAR-8 (Ovarian), read-out: Growth inhibition (%)): 88.6%
GI50 (OVCAR-8; Homo sapiens, five-dose, OVCAR-8): 7.96 µM
TGI (OVCAR-8; five-dose, OVCAR-8): 45.20 µM
inhibition at 10 µM (ACHN; Homo sapiens, 10 µM single dose, ACHN (Renal), read-out: Growth inhibition (%)): 55.1%
GI50 (ACHN; Homo sapiens, five-dose, ACHN): 10.8 µM
TGI (ACHN; five-dose, ACHN): 75.30 µM
inhibition at 10 µM (A498; Homo sapiens, 10 µM single dose, A498 (Renal), read-out: Growth inhibition (%)): 8.9%
GI50 (A498; Homo sapiens, five-dose, A498): 18 µM
CC50 (A498; Homo sapiens, five-dose, A498, read-out: LC50 (the source's name)): > 100 µM
TGI (A498; five-dose, A498): 85.20 µM
inhibition at 10 µM (T-47D; Homo sapiens, T47D, 10 µM single dose, T-47D (Breast), read-out: Growth inhibition (%)): 69%
GI50 (T-47D; Homo sapiens, T47D, five-dose, T-47D): 3.18 µM
CC50 (T-47D; Homo sapiens, T47D, five-dose, T-47D, read-out: LC50 (the source's name)): > 100 µM
TGI (T-47D; five-dose, T-47D): >100 µM
inhibition at 10 µM (OVCAR-5; Homo sapiens, 10 µM single dose, OVCAR-5 (Ovarian), read-out: Growth inhibition (%)): 21.7%
GI50 (OVCAR-5; Homo sapiens, five-dose, OVCAR-5): 25 µM
TGI (OVCAR-5; five-dose, OVCAR-5): >100 µM
inhibition at 10 µM (NCI-H23; Homo sapiens, 10 µM single dose, NCI-H23 (NSCLC), read-out: Growth inhibition (%)): 75.6%
GI50 (NCI-H23; Homo sapiens, five-dose, NCI-H23): 5.93 µM
TGI (NCI-H23; five-dose, NCI-H23): >100 µM
inhibition at 10 µM (SF-539; Homo sapiens, 10 µM single dose, SF-539 (CNS), read-out: Growth inhibition (%)): 59.3%
GI50 (SF-539; Homo sapiens, five-dose, SF-539): 13.6 µM
TGI (SF-539; five-dose, SF-539): >100 µM
inhibition at 10 µM (CCRF-CEM; Homo sapiens, 10 µM single dose, CCRF-CEM (Leukemia), read-out: Growth inhibition (%)): 83.9%
GI50 (CCRF-CEM; Homo sapiens, five-dose, CCRF-CEM): 3.72 µM
TGI (CCRF-CEM; five-dose, CCRF-CEM): >100 µM
inhibition at 10 µM (CAKI-1; Homo sapiens, 10 µM single dose, CAKI-1 (Renal), read-out: Growth inhibition (%)): 69.8%
GI50 (CAKI-1; Homo sapiens, five-dose, CAKI-1): 4.44 µM
CC50 (CAKI-1; Homo sapiens, five-dose, CAKI-1, read-out: LC50 (the source's name)): > 100 µM
TGI (CAKI-1; five-dose, CAKI-1): 26.90 µM
inhibition at 10 µM (A549/ATCC; Homo sapiens, 10 µM single dose, A549/ATCC (NSCLC), read-out: Growth inhibition (%)): 58.8%
GI50 (A549/ATCC; Homo sapiens, five-dose, A549/ATCC): 15.5 µM
TGI (A549/ATCC; five-dose, A549/ATCC): >100 µM
inhibition at 10 µM (HCT-15; Homo sapiens, 10 µM single dose, HCT-15 (Colon), read-out: Growth inhibition (%)): 97.2%
GI50 (HCT-15; Homo sapiens, five-dose, HCT-15): 3.46 µM
TGI (HCT-15; five-dose, HCT-15): 25.20 µM
inhibition at 10 µM (MDA-MB-231; Homo sapiens, 10 µM single dose, MDA-MB-231 (Breast), read-out: Growth inhibition (%)): 67.5%
GI50 (MDA-MB-231; Homo sapiens, five-dose, MDA-MB-231/ATCC): 15.8 µM
CC50 (MDA-MB-231; Homo sapiens, five-dose, MDA-MB-231/ATCC, read-out: LC50 (the source's name)): > 100 µM
TGI (MDA-MB-231; five-dose, MDA-MB-231/ATCC): >100 µM
inhibition at 10 µM (SK-OV-3; Homo sapiens, 10 µM single dose, SK-OV-3 (Ovarian), read-out: Growth inhibition (%)): 32.2%
GI50 (SK-OV-3; Homo sapiens, five-dose, SK-OV-3): 71.8 µM
CC50 (SK-OV-3; Homo sapiens, five-dose, SK-OV-3, read-out: LC50 (the source's name)): > 100 µM
TGI (SK-OV-3; five-dose, SK-OV-3): >100 µM
inhibition at 10 µM (SNB-75): 18.3%
inhibition at 10 µM (HOP-92; Homo sapiens, 10 µM single dose, HOP-92 (NSCLC), read-out: Growth inhibition (%)): 56.1%
GI50 (HOP-92; Homo sapiens, five-dose, HOP-92): 6.51 µM
TGI (HOP-92; five-dose, HOP-92): 62.70 µM
inhibition at 10 µM (COLO 205; Homo sapiens, 10 µM single dose, COLO 205 (Colon), read-out: Growth inhibition (%)): 96.4%
GI50 (COLO 205; Homo sapiens, five-dose, COLO 205): 9.62 µM
TGI (COLO 205; five-dose, COLO 205): >100 µM
inhibition at 10 µM (HOP-62; Homo sapiens, 10 µM single dose, HOP-62 (NSCLC), read-out: Growth inhibition (%)): 72.9%
GI50 (HOP-62; Homo sapiens, five-dose, HOP-62): 12.9 µM
CC50 (HOP-62; Homo sapiens, five-dose, HOP-62, read-out: LC50 (the source's name)): > 100 µM
TGI (HOP-62; five-dose, HOP-62): >100 µM
inhibition at 10 µM (SW-620; Homo sapiens, 10 µM single dose, SW-620 (Colon), read-out: Growth inhibition (%)): 92.7%
GI50 (SW-620; Homo sapiens, five-dose, SW-620): 2.76 µM
TGI (SW-620; five-dose, SW-620): >100 µM
CC50 (SK-MEL-28; Homo sapiens, SK-MEL-28, 48 h, five-dose, SK-MEL-28, read-out: LC50 (the source's name)): 71.5 µM
inhibition at 10 µM (SK-MEL-28; Homo sapiens, 10 µM single dose, 48 h, SK-MEL-28 (Melanoma), read-out: Growth inhibition (%)): 46.3%
GI50 (SK-MEL-28; Homo sapiens, five-dose, 48 h, SK-MEL-28): 12.3 µM
TGI (SK-MEL-28; five-dose, 48 h, SK-MEL-28): 28.50 µM
CC50 (SK-MEL-28; five-dose, 48 h, SK-MEL-28, read-out: LC50 (the source's name)): 65.6 µM
inhibition at 10 µM (SF-268; Homo sapiens, 10 µM single dose, SF-268 (CNS), read-out: Growth inhibition (%)): 45.4%
GI50 (SF-268; Homo sapiens, five-dose, SF-268): 10.8 µM
CC50 (SF-268; Homo sapiens, five-dose, SF-268, read-out: LC50 (the source's name)): > 100 µM
TGI (SF-268; five-dose, SF-268): 88.10 µM
inhibition at 10 µM (KM12; Homo sapiens, 10 µM single dose, KM12 (Colon), read-out: Growth inhibition (%)): 99.7%
GI50 (KM12; Homo sapiens, five-dose, KM12): 5.3 µM
TGI (KM12; five-dose, KM12): >100 µM
inhibition at 10 µM (HCC-2998; Homo sapiens, 10 µM single dose, HCC-2998 (Colon), read-out: Growth inhibition (%)): 50.9%
GI50 (HCC-2998; Homo sapiens, five-dose, HCC-2998): 13.7 µM
CC50 (HCC-2998; Homo sapiens, five-dose, HCC-2998, read-out: LC50 (the source's name)): > 100 µM
TGI (HCC-2998; five-dose, HCC-2998): >100 µM
inhibition at 10 µM (MCF7; Homo sapiens, 10 µM single dose, MCF7 (Breast), read-out: Growth inhibition (%)): 90.5%
GI50 (MCF7; Homo sapiens, five-dose, MCF7): 2.9 µM
CC50 (MCF7; Homo sapiens, five-dose, MCF7, read-out: LC50 (the source's name)): > 100 µM
TGI (MCF7; five-dose, MCF7): 30.90 µM
CC50 (SK-MEL-5; Homo sapiens, SK-MEL-5, 48 h, five-dose, SK-MEL-5, read-out: LC50 (the source's name)): 65.6 µM
inhibition at 10 µM (SK-MEL-5; Homo sapiens, 10 µM single dose, 48 h, SK-MEL-5 (Melanoma), read-out: Growth inhibition (%)): 153%
GI50 (SK-MEL-5; Homo sapiens, five-dose, 48 h, SK-MEL-5): 3.46 µM
CC50 (SK-MEL-5; five-dose, 48 h, SK-MEL-5, read-out: LC50 (the source's name)): 71.5 µM
inhibition at 10 µM (RPMI-8226; Homo sapiens, 10 µM single dose, RPMI-8226 (Leukemia), read-out: Growth inhibition (%)): 95.5%
GI50 (RPMI-8226; Homo sapiens, five-dose, RPMI-8226): 3.09 µM
CC50 (RPMI-8226; Homo sapiens, five-dose, RPMI-8226, read-out: LC50 (the source's name)): > 100 µM
TGI (RPMI-8226; five-dose, RPMI-8226): >100 µM
inhibition at 10 µM (MOLT-4; 10 µM single dose, MOLT-4 (Leukemia), read-out: Growth inhibition (%)): 98.1%
GI50 (MOLT-4; five-dose, MOLT-4): 2.99 µM
CC50 (MOLT-4; five-dose, MOLT-4, read-out: LC50 (the source's name)): > 100 µM
inhibition at 10 µM (SN12C; Homo sapiens, 10 µM single dose, SN12C (Renal), read-out: Growth inhibition (%)): 66.1%
GI50 (SN12C; Homo sapiens, five-dose, SN12C): 9.74 µM
CC50 (SN12C; Homo sapiens, five-dose, SN12C, read-out: LC50 (the source's name)): > 100 µM
TGI (SN12C; five-dose, SN12C): 66.60 µM
inhibition at 10 µM (SK-MEL-2; Homo sapiens, 10 µM single dose, SK-MEL-2 (Melanoma), read-out: Growth inhibition (%)): 66.2%
GI50 (SK-MEL-2; Homo sapiens, five-dose, SK-MEL-2): 9.67 µM
CC50 (SK-MEL-2; Homo sapiens, five-dose, SK-MEL-2, read-out: LC50 (the source's name)): > 100 µM
TGI (SK-MEL-2; five-dose, SK-MEL-2): 65.90 µM
